# Literature values, collected in US20050196418A1, “Bioavailability and improved delivery of alkaline pharmaceutical drugs” (priority 2004, published 2005).
# Settings: free base; due to air oxidation
compound,measurement,value
Clc1ccccc1C(c1ccccc1)(c1ccccc1)n1ccnc1 [Clotrimazole],chemical stability in a solution or formulation for shelf storage,chemically unstable
